Data as given in patent EP3505527A1, “CYCLIC DINUCLEOTIDES FOR CYTOKINE INDUCTION” (Invivogen, priority 2017, dated 2019).
Where two headings read alike, the source gives them in different places.

Experiments:
STING = experiment: STING-dependent cytokine induction, overall activity in words (THP1 Dual in vitro and whole blood ex vivo, Tables 2 to 4); format: cell-based, human; conditions: comment on Tables 2 and 3
Description: (§1) . The ex vivo (whole blood assay) cytokine-induction activity of a representative set these cyclic dinucleotides is reported here with the same protocol described in Example 2.2.
as §1, §1

IRF pathway [1] = target: T1, IRF pathway (Homo sapiens, UniProt Q86WV6); experiment: ISG54 (IRF pathway) Lucia reporter assay in THP-1-Dual cells, Type I IFN induction; format: cell-based
Description: The IRF pathway has been investigated by using the two following ISG reporter cell lines obtained directly from InvivoGen. They are described here and provided with their corresponding InvivoGen catalog code.

NF-κB pathway = NF-κB pathway (Homo sapiens, UniProt Q86WV6); experiment: NF-κB SEAP reporter assay in THP1 Dual cells; format: cell-based
RAW-Difluo™ mLC3 Cells = experiment: Autophagy induction (puncta formation) in RAW-Difluo mLC3 reporter cells; format: cell-based, murine; conditions: 8 hours
Experimental: The ability of the CDNs of the present invention, to activate STING-dependent autophagy induction was measured using the murine autophagy reporter cell line obtained directly from InvivoGen.
RAW-Difluo™ mLC3 Cells are autophagy reporter cells derived from the murine RAW 264.7 macrophage cell line, a physiologically relevant cell line. They express an RFP::GFP::LC3 fusion protein, RFP-GFP-LC3, in which the N-terminus of murine LC3 is fused to two fluorescent reporter proteins: a RFP (acid-stable) and a GFP (acid-sensitive). In these cells, the RFP-GFP pair enables monitoring of autophagic flux in real time by detecting the appearance of green (GFP-LC3) and/or red (RFP-LC3) puncta by fluorescence microscopy.
Approximately 50,000 cells (500 µL) per well of 24-well plates were seeded 24 h before treatment. The next day, the cells were treated either with a solution containing a CDN at one of three different concentrations (1 µg/mL, 3 µg/mL or 10 µg/mL) or with Rapamycin at 25 µM, or were left untreated. The plates were incubated at 37 °C in a CO2 incubator for 8 hours. Fluorescence intensity and puncta formation was monitored at λexc = 480 nm and λem = 505 nm.

[2] = tested on: Panc02 (murine pancreatic tumor cell line); experiment: Murine orthotopic Panc02 pancreatic cancer model, i.p. monotherapy; format: in vivo, mouse; conditions: for final mean tumor volume: Panc02, 1 mg/Kg i.p. once daily, 4 days a week for 3 weeks; for final mean tumor volume / incidence of metastasis: day 28; for tumor growth / incidence of metastasis: Panc02, 1 mg/Kg i.p.; for tumor growth: compared with control group
Description: • Species evaluated: mouse • Tumor model: Panc02 (murine pancreatic tumor cell line) • Treatments tested: CL735 and CL742 (monotherapy) • Clinical parameters evaluated: tumor volume, tumor weight and incidence of metastasis • Administration routes evaluated: intraperitoneal (i.p.) injection
On Day 1, […] (C57BL/6; male) received an orthotopic injection of Panc02 tumor cells (1 x 106) in the pancreas. On Day 8, the mice were then divided into two groups of eight each (treated groups) and one group of five (control group). Each group received a different treatment, as outlined below: • Group 1 (control): saline (by i.p. injection) once daily, 4 days a week for 3 weeks; • Group 2: CL735 at 1 mg/Kg (by i.p. injection) once daily, 4 days a week for 3 weeks; • Group 3: CL742 at 1 mg/Kg (by i.p. injection) once daily, 4 days a week for 3 weeks
Left: Weight of individual Panc02 tumors at day 28 by treatment group. Right: Mean tumor weight at day 28, sd and sem for each group. • Figure 9. Left: Volume of individual Panc02 tumors at day 28 by treatment group. Right: Mean tumor volume at day 28, sd and sem for each group. • Figure 10. Incidence of metastasis in a murine model of Panc02 tumors. The mice were treated with saline (control), CL735 or CL742 monotherapies and metastases number was recorded at day 28. On the right, table indicated the mean of metastases number on animals that have survived by day 28, sd and sem for each group.

[3] = tested on: B16 (murine melanoma tumor cell line); experiment: Murine subcutaneous B16 melanoma model, i.t. monotherapy; format: in vivo, mouse
Description: • Species evaluated: mouse • Tumor model: B16 (murine melanoma tumor cell line) • Treatments tested: CL742 and CL747 (monotherapy) • Clinical parameters evaluated: tumor volume • Administration routes evaluated: intratumoral (i.t.) injection
On Day 1, 15 mice (C57BL/6; male) received a subcutaneous injection of B16 tumor cells (1 x 105) on the right flank. On Day 13, the mice were then divided into two groups of five each (treated groups) and one group of five (control group). Each group received a different treatment, as outlined below: • Group 1 (control): saline (i.t. injection) at days 13 16 and 20; • Group 2: CL742 at 1.25 mg/Kg (i.t. injection) at days 13 16 and 20; • Group 3: CL747 at 1.25 mg/Kg (i.t. injection) at days 13 16 and 20
The tumor volume and animal weight were monitored every 2 days and animals were euthanized at Day 28 (Figure 11).

IRF pathway [4] = target: T1, IRF pathway; experiment: ISG54 reporter assay in THP-1-Dual KO-STING cells; format: cell-based; conditions: THP1-Dual KO-STING cells (Figures 2A and 2B)
Description: THP-1-Dual™-KO-STING (InvivoGen catalog code: thpd-kostg): These cells were generated from the human monocyte THP-1-Dual™, through stable homozygote knockout of the STING gene. Bialielic STING knockout was verified by functional assays, PCR and DNA sequencing.

NF-κB pathway, sequence (Q86WV6 whole entry): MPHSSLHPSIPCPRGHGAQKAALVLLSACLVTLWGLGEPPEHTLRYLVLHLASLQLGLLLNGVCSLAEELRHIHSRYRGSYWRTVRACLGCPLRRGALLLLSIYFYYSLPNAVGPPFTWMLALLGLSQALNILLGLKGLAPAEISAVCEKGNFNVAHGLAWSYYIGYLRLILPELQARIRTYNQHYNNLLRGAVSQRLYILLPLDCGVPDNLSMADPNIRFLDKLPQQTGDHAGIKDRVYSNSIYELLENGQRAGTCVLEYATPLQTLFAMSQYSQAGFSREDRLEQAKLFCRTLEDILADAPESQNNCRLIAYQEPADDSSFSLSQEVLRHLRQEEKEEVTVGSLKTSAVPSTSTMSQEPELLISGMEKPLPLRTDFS
T1 sequence (Q86WV6 whole entry): as above

## Nc1ncnc2c1ncn2[C@@H]1O[C@@H]2COP(=O)(O)O[C@@H]3[C@@H](F)[C@@H](COP(=O)(S)O[C@H]2[C@H]1F)O[C@H]3n1cnc2c(=O)[nH]cnc21 (some centres unmarked) [CL781, (2',3')c-[3'F3'XylodIMP-2'FdAM(PS)]]
STING
  activity (ranking between compounds): CL781 >> CL764

## Nc1ncnc2c1ncn2[C@@H]1O[C@@H]2COP(=O)(O)O[C@@H]3[C@@H](F)[C@@H](COP(=O)(O)O[C@H]2[C@H]1F)O[C@H]3n1cnc2c(N)ncnc21 [CL710, (2',3')c-[xylo3'F3'dAMP-2'FdAMP]]
IRF pathway [1]; THP1 Dual cells, ISG read-out
  EC50: > 50 µM
NF-κB pathway; NFκB read-out
  EC50: > 50 µM

## (2',3')c-[3'F3'XylodIM(PS)-2'FdI(POM)MP] [CL746]
RAW-Difluo™ mLC3 Cells; 1 µg/mL
  Autophagy level: ++ (50% of cells have puncta)
RAW-Difluo™ mLC3 Cells; 3 µg/mL
  Autophagy level: ++ (50% of cells have puncta)
RAW-Difluo™ mLC3 Cells; 10 µg/mL
  Autophagy level: ++ (50% of cells have puncta)

## CC(C)(C)C(=O)OCSP1(=O)OC[C@H]2O[C@@H](n3cnc4c(=O)[nH]cnc43)[C@H](OP(=O)(O)OC[C@H]3O[C@@H](n4cnc5c(N)ncnc54)[C@H](F)[C@@H]3O1)[C@H]2F (some centres unmarked) [CL784, (2',3')c-[3'F3'XylodIMP-2'FdAM(PS-POM)]]
STING
  activity (ranking between compounds): CL784 > CL781

## CO[C@H]1C[C@@H]2CC[C@@H](C)[C@@](O)(O2)C(=O)C(=O)N2CCCC[C@H]2C(=O)O[C@H]([C@H](C)C[C@@H]2CC[C@@H](O)[C@H](OC)C2)CC(=O)[C@H](C)/C=C(\C)[C@@H](O)[C@@H](OC)C(=O)[C@H](C)C[C@H](C)/C=C/C=C/C=C/1C [Rapamycin, reference compound]
RAW-Difluo™ mLC3 Cells; 25 µM
  Autophagy level: ++++ (90% of cells have puncta)

## O=c1[nH]cnc2c1ncn2[C@@H]1O[C@@H]2COP(=O)(O)O[C@@H]3[C@@H](F)[C@@H](COP(=O)(O)O[C@H]2[C@H]1F)O[C@H]3n1cnc2c(=O)[nH]cnc21 [CL742, (2',3')c-[3'F3'XylodIMP-2'FdIMP]]
RAW-Difluo™ mLC3 Cells; 1 µg/mL
  Autophagy level: +/- (10% of cells have puncta)
RAW-Difluo™ mLC3 Cells; 3 µg/mL
  Autophagy level: +/- (10% of cells have puncta)
RAW-Difluo™ mLC3 Cells; 10 µg/mL
  Autophagy level: + (25% of cells have puncta)
[2]
  final mean tumor volume: 47 +/- 29 mm3
  tumor growth: significant reduction in tumor growth
  incidence of metastasis: no metastases were found
[3]; B16, 1.25 mg/Kg i.t. at days 13 16 and 20, day 20
  mean tumor volume: 779 +/- 816 mm3
[3]; B16, 1.25 mg/Kg i.t., compared with control group
  tumor growth: significant reduction in tumor growth
IRF pathway [4]
  production of Type I interferons: did not induced production of Type I interferons

## O=c1[nH]cnc2c1ncn2[C@@H]1O[C@@H]2COP(=O)(S)O[C@H]3[C@@H](F)[C@H](n4cnc5c(=O)[nH]cnc54)O[C@@H]3COP(=O)(S)O[C@H]2[C@H]1F (stereo partly drawn) [CL735, c-di[2'FdIMP(S)]]
RAW-Difluo™ mLC3 Cells; 1 µg/mL
  Autophagy level: ++ (50% of cells have puncta)
RAW-Difluo™ mLC3 Cells; 3 µg/mL
  Autophagy level: ++ (50% of cells have puncta)
RAW-Difluo™ mLC3 Cells; 10 µg/mL
  Autophagy level: ++ (50% of cells have puncta)
[2]
  final mean tumor volume: 150 +/- 69 mm3
  tumor growth: significant reduction in tumor growth
  incidence of metastasis: no metastases were found
IRF pathway [4]
  production of Type I interferons: did not induced production of Type I interferons

## Nc1ncnc2c1ncn2[C@@H]1O[C@@H]2COP(=O)(S)O[C@@H]3[C@@H](F)[C@@H](COP(=O)(S)O[C@H]2[C@H]1F)O[C@H]3n1cnc2c(N)ncnc21 (some centres unmarked) [CL766, (2',3')c-[xylo 3'F3'dAM(PS)-2'FdAM(PS)]]
IRF pathway [1]; THP1 Dual cells, ISG read-out
  EC50: > 50 µM
NF-κB pathway; NFκB read-out
  EC50: > 50 µM

## CC(C)(C)C(=O)OCSP1(=O)OC[C@H]2O[C@@H](n3cnc4c(N)ncnc43)[C@H](F)[C@@H]2OP(=O)(SCOC(=O)C(C)(C)C)OC[C@H]2O[C@@H](n3cnc4c(=O)[nH]c(N)nc43)[C@H](O1)[C@H]2F (some centres unmarked) [CL751, (2',3')c-[3'F3'XylodGM(PS-POM)-2'FdAM(PS-POM)]]
IRF pathway [1]; read-out: EC50 THP1 Dual ISG
  EC50: 0.93 µM
NF-κB pathway; read-out: EC50 THP1 Dual NFκB
  EC50: 2.51 µM

## CC(C)(C)C(=O)OCn1cnc2c(ncn2[C@@H]2O[C@@H]3COP(=O)(O)O[C@H]4C[C@H](n5cnc6c(N)nc(Cl)nc65)O[C@@H]4COP(=O)(O)O[C@H]3[C@H]2F)c1=O [CL762, (3'3')c-[2CIdAMP-2'FdI(POM)MP]]
STING
  activity (ranking between compounds): CL762 < CL760

## CC(C)(C)C(=O)OCSP1(=O)OC[C@H]2O[C@@H](n3cnc4c(N)ncnc43)[C@H](F)[C@@H]2OP(=O)(SCOC(=O)C(C)(C)C)OC[C@H]2O[C@@H](n3cnc4c(N)ncnc43)[C@H](O1)[C@H]2F (some centres unmarked) [CL760, (2',3')c-[xylo3'F3'dAM(PS-POM)-2'FdAM(PS-POM)]]
IRF pathway [1]; read-out: EC50 THP1 Dual ISG
  EC50: 0.33 µM
NF-κB pathway; read-out: EC50 THP1 Dual NFκB
  EC50: 1.76 µM

## O=c1[nH]cnc2c1ncn2[C@@H]1O[C@@H]2COP(=O)(O)O[C@H]3[C@@H](O)[C@H](n4cnc5c(=O)[nH]cnc54)O[C@@H]3COP(=O)(O)O[C@H]2[C@H]1O [cdiIMP, reference compound]
RAW-Difluo™ mLC3 Cells; 1 µg/mL
  Autophagy level: + (25% of cells have puncta)
RAW-Difluo™ mLC3 Cells; 3 µg/mL
  Autophagy level: ++ (50% of cells have puncta)
RAW-Difluo™ mLC3 Cells; 10 µg/mL
  Autophagy level: +++ (75% of cells have puncta)

## Nc1nc(Cl)nc2c1ncn2[C@H]1C[C@@H]2OP(=O)(O)OC[C@H]3O[C@@H](n4cnc5c(=O)[nH]cnc54)[C@H](F)[C@@H]3OP(=O)(O)OC[C@H]2O1 [CL761, (3'3')c-(2CIdAMP-2'FdIMP)]
STING
  activity (ranking between compounds): CL761 < CL760

## Nc1ncnc2c1ncn2[C@@H]1O[C@@H]2COP(=O)(O)O[C@@H]3[C@@H](F)[C@@H](COP(=O)(S)O[C@H]2[C@H]1F)O[C@H]3n1cnc2c(N)ncnc21 (some centres unmarked) [CL714, (2',3')c-[xylo3'F3'dAM(PS)-2'FdAMP]]
IRF pathway [1]; THP1 Dual cells, ISG read-out
  EC50: 4.84 µM
NF-κB pathway; NFκB read-out
  EC50: 14.6 µM
STING
  activity (ranking between compounds): CL714 > CL766

## O=c1[nH]cnc2c1ncn2[C@@H]1O[C@@H]2COP(=O)(O)O[C@H]3[C@@H](F)[C@H](n4cnc5c(=O)[nH]cnc54)O[C@@H]3COP(=O)(O)O[C@H]2[C@H]1F [CL626, reference compound]
RAW-Difluo™ mLC3 Cells; 1 µg/mL
  Autophagy level: ++ (50% of cells have puncta)
RAW-Difluo™ mLC3 Cells; 3 µg/mL
  Autophagy level: ++ (50% of cells have puncta)
RAW-Difluo™ mLC3 Cells; 10 µg/mL
  Autophagy level: ++ (50% of cells have puncta)

## CC(C)(C)C(=O)OCn1cnc2c(ncn2[C@@H]2O[C@@H]3COP(=O)(O)O[C@H]4[C@@H](F)[C@H](n5cnc6c(=O)[nH]cnc65)O[C@@H]4COP(=O)(O)O[C@H]3[C@H]2F)c1=O [CL733, c-[2'FdI(POM)MP-2'FdIMP]]
RAW-Difluo™ mLC3 Cells; 1 µg/mL
  Autophagy level: +/- (10% of cells have puncta)
RAW-Difluo™ mLC3 Cells; 3 µg/mL
  Autophagy level: +/- (10% of cells have puncta)
RAW-Difluo™ mLC3 Cells; 10 µg/mL
  Autophagy level: + (25% of cells have puncta)
